Reference: ChEMBL document CHEMBL1155172, “Distribution of radioactivity in bone and related structures following administration of [14C]dalbavancin to New Zealand white rabbits” (Antimicrob Agents Chemother, 2007)

How the values were obtained:
[1] = Drug level in New Zealand white rabbit ligament assessed as [14C]dalbavancin level per gram of tissue at 20 mg/kg, iv after 336 hrs by autoradioluminography; assay type: ADME, organism-based, Oryctolagus cuniculus; parameters: dose 20 mg/kg, route intravenous; details: in vivo
[2] = Drug level in New Zealand white rabbit synovial space assessed as [14C]dalbavancin level per gram of tissue at 20 mg/kg, iv after 72 hrs by autoradioluminography; assay type: ADME, organism-based, Oryctolagus cuniculus; parameters: dose 20 mg/kg, route intravenous; details: in vivo
[3] = Drug level in New Zealand white rabbit synovial space assessed as [14C]dalbavancin level per gram of tissue at 20 mg/kg, iv after 120 hrs by autoradioluminography; assay type: ADME, organism-based, Oryctolagus cuniculus; parameters: dose 20 mg/kg, route intravenous; details: in vivo
[4] = Drug level in New Zealand white rabbit synovial space assessed as [14C]dalbavancin level per gram of tissue at 20 mg/kg, iv after 168 hrs by autoradioluminography; assay type: ADME, organism-based, Oryctolagus cuniculus; parameters: dose 20 mg/kg, route intravenous; details: in vivo
[5] = Drug level in New Zealand white rabbit meniscus assessed as [14C]dalbavancin level per gram of tissue at 20 mg/kg, iv after 120 hrs by autoradioluminography; assay type: ADME, organism-based, Oryctolagus cuniculus; parameters: dose 20 mg/kg, route intravenous; details: in vivo
[6] = Drug level in New Zealand white rabbit bone marrow assessed as [14C]dalbavancin level per gram of tissue at 20 mg/kg, iv after 120 hrs by autoradioluminography; assay type: ADME, organism-based, Oryctolagus cuniculus; parameters: dose 20 mg/kg, route intravenous; details: in vivo
[7] = Drug level in New Zealand white rabbit bone marrow assessed as [14C]dalbavancin level per gram of tissue at 20 mg/kg, iv after 168 hrs by autoradioluminography; assay type: ADME, organism-based, Oryctolagus cuniculus; parameters: dose 20 mg/kg, route intravenous; details: in vivo
[8] = Drug level in New Zealand white rabbit skeletal muscle assessed as [14C]dalbavancin level per gram of tissue at 20 mg/kg, iv after 168 hrs by autoradioluminography; assay type: ADME, organism-based, Oryctolagus cuniculus; parameters: dose 20 mg/kg, route intravenous; details: in vivo
[9] = Drug level in New Zealand white rabbit skeletal muscle assessed as [14C]dalbavancin level per gram of tissue at 20 mg/kg, iv after 336 hrs by autoradioluminography; assay type: ADME, organism-based, Oryctolagus cuniculus; parameters: dose 20 mg/kg, route intravenous; details: in vivo
[10] = Drug level in human urine assessed as hydroxydalbavancin level; assay type: ADME, tissue-based
Streptococcus = assay: Antibacterial activity against Streptococcus; assay type: functional
Blood [11] = assay: Drug level in New Zealand white rabbit blood assessed as [14C]dalbavancin level per gram of tissue at 20 mg/kg, iv after 168 hrs by autoradioluminography; assay type: ADME, organism-based, Oryctolagus cuniculus; parameters: dose 20 mg/kg, route intravenous; details: in vivo
Blood [12] = assay: Drug level in New Zealand white rabbit blood assessed as [14C]dalbavancin level per gram of tissue at 20 mg/kg, iv after 336 hrs by autoradioluminography; assay type: ADME, organism-based, Oryctolagus cuniculus; parameters: dose 20 mg/kg, route intravenous; details: in vivo
[13] = Drug level in New Zealand white rabbit periostium assessed as [14C]dalbavancin level per gram of tissue at 20 mg/kg, iv after 24 hrs by autoradioluminography; assay type: ADME, organism-based, Oryctolagus cuniculus, Periosteum; parameters: dose 20 mg/kg, route intravenous; details: in vivo
[14] = Drug level in New Zealand white rabbit periostium assessed as [14C]dalbavancin level per gram of tissue at 20 mg/kg, iv after 120 hrs by autoradioluminography; assay type: ADME, organism-based, Oryctolagus cuniculus, Periosteum; parameters: dose 20 mg/kg, route intravenous; details: in vivo
[15] = Drug level in New Zealand white rabbit periostium assessed as [14C]dalbavancin level per gram of tissue at 20 mg/kg, iv after 336 hrs by autoradioluminography; assay type: ADME, organism-based, Oryctolagus cuniculus, Periosteum; parameters: dose 20 mg/kg, route intravenous; details: in vivo
[16] = Drug level in New Zealand white rabbit articular cartilage assessed as [14C]dalbavancin level per gram of tissue at 20 mg/kg, iv after 24 hrs by autoradioluminography; assay type: ADME, organism-based, Oryctolagus cuniculus; parameters: dose 20 mg/kg, route intravenous; details: in vivo
[17] = Drug level in New Zealand white rabbit compact bone assessed as [14C]dalbavancin level per gram of tissue at 20 mg/kg, iv after 12 hrs by autoradioluminography; assay type: ADME, organism-based, Oryctolagus cuniculus, Bone element; parameters: dose 20 mg/kg, route intravenous; details: in vivo
[18] = Drug level in New Zealand white rabbit compact bone assessed as [14C]dalbavancin level per gram of tissue at 20 mg/kg, iv after 24 hrs by autoradioluminography; assay type: ADME, organism-based, Oryctolagus cuniculus, Bone element; parameters: dose 20 mg/kg, route intravenous; details: in vivo
[19] = Drug level in New Zealand white rabbit compact bone assessed as [14C]dalbavancin level per gram of tissue at 20 mg/kg, iv after 72 hrs by autoradioluminography; assay type: ADME, organism-based, Oryctolagus cuniculus, Bone element; parameters: dose 20 mg/kg, route intravenous; details: in vivo
[20] = Drug level in New Zealand white rabbit compact bone assessed as [14C]dalbavancin level per gram of tissue at 20 mg/kg, iv after 336 hrs by autoradioluminography; assay type: ADME, organism-based, Oryctolagus cuniculus, Bone element; parameters: dose 20 mg/kg, route intravenous; details: in vivo
[21] = Drug level in New Zealand white rabbit epiphyseal plate assessed as [14C]dalbavancin level per gram of tissue at 20 mg/kg, iv after 72 hrs by autoradioluminography; assay type: ADME, organism-based, Oryctolagus cuniculus; parameters: dose 20 mg/kg, route intravenous; details: in vivo
[22] = Drug level in New Zealand white rabbit epiphyseal plate assessed as [14C]dalbavancin level per gram of tissue at 20 mg/kg, iv after 168 hrs by autoradioluminography; assay type: ADME, organism-based, Oryctolagus cuniculus; parameters: dose 20 mg/kg, route intravenous; details: in vivo
[23] = Drug level in New Zealand white rabbit epiphyseal plate assessed as [14C]dalbavancin level per gram of tissue at 20 mg/kg, iv after 336 hrs by autoradioluminography; assay type: ADME, organism-based, Oryctolagus cuniculus; parameters: dose 20 mg/kg, route intravenous; details: in vivo
[24] = Drug level in New Zealand white rabbit ligament assessed as [14C]dalbavancin level per gram of tissue at 20 mg/kg, iv after 120 hrs by autoradioluminography; assay type: ADME, organism-based, Oryctolagus cuniculus; parameters: dose 20 mg/kg, route intravenous; details: in vivo
Oryctolagus cuniculus [25] = assay: Plasma concentration in New Zealand white rabbit assessed as [14C]dalbavancin level per gram of tissue at 20 mg/kg, iv after 72 hrs by liquid scintillation counting method; assay type: ADME, organism-based; parameters: dose 20 mg/kg, route intravenous; details: in vivo
Oryctolagus cuniculus [26] = assay: Plasma concentration in New Zealand white rabbit assessed as [14C]dalbavancin level per gram of tissue at 20 mg/kg, iv after 168 hrs by liquid scintillation counting method; assay type: ADME, organism-based; parameters: dose 20 mg/kg, route intravenous; details: in vivo
[27] = Drug level in New Zealand white rabbit bone assessed as [14C]dalbavancin level per gram of tissue at 20 mg/kg, iv after 24 hrs by liquid scintillation counting method; assay type: ADME, organism-based, Oryctolagus cuniculus, Bone element; parameters: dose 20 mg/kg, route intravenous; details: in vivo
[28] = Drug level in New Zealand white rabbit bone assessed as [14C]dalbavancin level per gram of tissue at 20 mg/kg, iv after 120 hrs by liquid scintillation counting method; assay type: ADME, organism-based, Oryctolagus cuniculus, Bone element; parameters: dose 20 mg/kg, route intravenous; details: in vivo
[29] = Drug level in New Zealand white rabbit bone marrow assessed as [14C]dalbavancin level per gram of tissue at 20 mg/kg, iv after 24 hrs by liquid scintillation counting method; assay type: ADME, organism-based, Oryctolagus cuniculus; parameters: dose 20 mg/kg, route intravenous; details: in vivo
[30] = Drug level in New Zealand white rabbit bone marrow assessed as [14C]dalbavancin level per gram of tissue at 20 mg/kg, iv after 72 hrs by liquid scintillation counting method; assay type: ADME, organism-based, Oryctolagus cuniculus; parameters: dose 20 mg/kg, route intravenous; details: in vivo
[31] = Drug level in New Zealand white rabbit bone marrow assessed as [14C]dalbavancin level per gram of tissue at 20 mg/kg, iv after 336 hrs by liquid scintillation counting method; assay type: ADME, organism-based, Oryctolagus cuniculus; parameters: dose 20 mg/kg, route intravenous; details: in vivo
[32] = Drug level in New Zealand white rabbit nucleus pulposus assessed as [14C]dalbavancin level per gram of tissue at 20 mg/kg, iv after 12 hrs by liquid scintillation counting method; assay type: ADME, organism-based, Oryctolagus cuniculus; parameters: dose 20 mg/kg, route intravenous; details: in vivo
[33] = Drug level in New Zealand white rabbit nucleus pulposus assessed as [14C]dalbavancin level per gram of tissue at 20 mg/kg, iv after 24 hrs by liquid scintillation counting method; assay type: ADME, organism-based, Oryctolagus cuniculus; parameters: dose 20 mg/kg, route intravenous; details: in vivo
Blood [34] = assay: Drug level in New Zealand white rabbit blood assessed as [14C]dalbavancin level per gram of tissue at 20 mg/kg, iv after 24 hrs by autoradioluminography; assay type: ADME, organism-based, Oryctolagus cuniculus; parameters: dose 20 mg/kg, route intravenous; details: in vivo
[35] = Drug level in New Zealand white rabbit cerebrospinal fluid assessed as [14C]dalbavancin level per gram of tissue at 20 mg/kg, iv after 12 hrs by liquid scintillation counting method; assay type: ADME, organism-based, Oryctolagus cuniculus; parameters: dose 20 mg/kg, route intravenous; details: in vivo
[36] = Drug level in New Zealand white rabbit cerebrospinal fluid assessed as [14C]dalbavancin level per gram of tissue at 20 mg/kg, iv after 24 hrs by liquid scintillation counting method; assay type: ADME, organism-based, Oryctolagus cuniculus; parameters: dose 20 mg/kg, route intravenous; details: in vivo
Blood [37] = assay: Drug level in New Zealand white rabbit blood assessed as [14C]dalbavancin level per gram of tissue at 20 mg/kg, iv after 12 hrs by autoradioluminography; assay type: ADME, organism-based, Oryctolagus cuniculus; parameters: dose 20 mg/kg, route intravenous; details: in vivo
Blood [38] = assay: Drug level in New Zealand white rabbit blood assessed as [14C]dalbavancin level per gram of tissue at 20 mg/kg, iv after 72 hrs by autoradioluminography; assay type: ADME, organism-based, Oryctolagus cuniculus; parameters: dose 20 mg/kg, route intravenous; details: in vivo

Structure (SMILES): CN[C@H]1C(=O)N[C@@H]2Cc3ccc(cc3)Oc3cc4cc(c3O[C@@H]3O[C@H](C(=O)O)[C@@H](O)[C@H](O)[C@H]3NC(=O)CCCCCCCCC(C)C)Oc3ccc(cc3Cl)[C@@H](O)[C@@H]3NC(=O)[C@H](NC(=O)[C@@H]4NC(=O)[C@@H](NC2=O)c2cc(cc(O)c2Cl)Oc2cc1ccc2O)c1ccc(O)c(c1)-c1c(O[C@H]2O[C@H](CO)[C@@H](O)[C@H](O)[C@@H]2O)cc(O)cc1[C@@H](C(=O)NCCCN(C)C)NC3=O [DALBAVANCIN]
- Drug uptake [1]: 1.43 µg
- Drug uptake [2]: 1.49 µg/g
- Drug uptake [3]: 2.66 µg/g
- Drug uptake [4]: 2.66 µg/g
- Drug uptake [5]: 4.39 µg/g
- Drug uptake [6]: 29.9 µg/g
- Drug uptake [7]: 18.9 µg
- Drug uptake [8]: 0.94 µg/g
- Drug uptake [9]: 0.8 µg/g
- Drug uptake [10]: 8 %ID
- MIC90 (Streptococcus): ≤ 0.03 µg/mL
- Drug uptake (Blood [11]): 5.33 µg/g
- Drug uptake (Blood [12]): 3.08 µg/g
- Drug uptake [13]: 11.35 µg
- Drug uptake [14]: 12.2 µg/g
- Drug uptake [15]: 5.18 µg
- Drug uptake [16]: 21.4 µg/g
- Drug uptake [17]: 1.56 µg/g
- Drug uptake [18]: 1.56 µg/g
- Drug uptake [19]: 0.39 µg
- Drug uptake [20]: 0.24 µg/g
- Drug uptake [21]: 11.7 µg/g
- Drug uptake [22]: 13.1 µg/g
- Drug uptake [23]: 8.42 µg/g
- Drug uptake [24]: 3.68 µg/g
- Cp (Oryctolagus cuniculus [25]): 4.5 µg
- Cp (Oryctolagus cuniculus [26]): 2.01 µg
- Drug uptake [27]: 5.14 µg/g
- Drug uptake [28]: 3.46 µg/g
- Drug uptake [29]: 14.8 µg/g
- Drug uptake [30]: 12.7 µg/g
- Drug uptake [31]: 12 µg/g
- Drug uptake [32]: 0.86 µg/g
- Drug uptake [33]: 0.76 µg/g
- Drug uptake (Blood [34]): 14.49 µg
- Drug uptake [35]: 0.08 µg/g
- Drug uptake [36]: 0.05 µg/g
- Drug uptake (Blood [37]): 30.6 µg/g
- Drug uptake (Blood [38]): 5.02 µg/g
